Experimental data: paper PMC12388506, “Preclinical Evaluation of 2-Aminobenzothiazole Derivatives: In Silico, In Vitro, and Preliminary In Vivo Studies as Diabetic Treatments and Their Complications” (Molecules, 2025)
“Also recorded” adds a separate entry of the source.

Key:
[1] = Observed chemical stability of the isolated compound; format: physicochemical; conditions: neutral (acid) form
Experimental: Compound 5d was obtained according to the general procedure described. It consists of reacting one molar equivalent of compound 2 with the corresponding carboxylate (L-phenylalanine sodium salt) under refluxing ethanol for 24 h. Under these conditions, the reaction proceeds by nucleophilic attack of the amino group on the carbonimidothioate group of compound 2, with the elimination of gaseous thiomethanol to obtain the sodium salt of SMe-isothiourea 5d, with a yield of 40%. […] Therefore, it was used only as an intermediate for the synthesis of its corresponding methyl ester (8d). The corresponding SMe-isothiureacarbozxylate methyl ester 8d was obtained in 56% yield using one molar equivalent of the SMe-isothiurea sodium salt, with 1.2 equivalents of iodomethane in DMF at room temperature for 24 h, following the general procedure described in the literature. […]
In a flask, L-phenylalanine (202 mg, 1.23 mmol) and NaOH (48.8 mg, 1.2 mmol) were placed in 10 mL of EtOH. […] It was kept at the same temperature for 24 h, and the reaction was monitored with TLC (Hex-AcOEt 7:3). […] Compound 5d was obtained as an acid in the form of a pale white crystal with a yield of 40.0% (182.5 mg, 0.5 mmol) and an mp = 92−94 °C; TLC Rf = 0.44 (Hex-AcOEt 7:3); HPLC tr = 10.7 min; ATR-FTIR νmax (cm^−1): 3155.8, 3067.3, 2925, 2855.6; HRMS (ESI+) 372.0840 m/z calculated for C18H18N3O2S2; found 372.0928 [M + H]^+.

IL-6 = test: Ex vivo serum IL-6 quantification; format: in vivo, rat
Experimental: (§1) At the end of the study, animals fasted for 12 h and were taken to a humane endpoint, where blood samples were obtained. These were kept at room temperature for 30 min and then centrifuged at 4000 RPM for 15 min at 4 °C. Finally, the serum was used to perform 24-element blood chemistry and quantify Trolox-equivalent TAC [86], TNF-α [87], and IL-6 levels using commercial kits from Merck (Darmstadt, Germany), Sigma-Aldrich (St. Louis, MO, USA), Cat. No. MAK334-1KT, RAB0479-1KT, and RAB0311-1KT, respectively. In addition, insulin was quantified using the Rat Ins1/Insulin ELISA Kit, from Sigma-Aldrich, No. Cat. RAB0904-1KT [89] to determine the HOMA-IR index. All kits were performed according to the manufacturer’s instructions without modifications.

[2] = system: STZ-HFD-induced T2D Wistar rats; test: 24-element blood chemistry in STZ-HFD-induced T2D model; format: in vivo, rat; set-up: GGT / TBA / AMY / TG / T-CHOL / GLU: unit not given here; conditions: for ALP / ALT / AST / CK: in U/L (unit assumed); for ALB / GLO / TP: in g/dL (unit assumed); for BUN / CRE / Ca / Mg / P / TBIL / UREA: in mg/dL (unit assumed); for tCO2: in mmol/L (unit assumed); for TP: mean ± SEM, n = 4
Experimental: (§2) Treatments were administered daily as described above, adjusting the dose according to the weight of the individuals. Fasting glucose levels (6 h fast) were monitored every 7 days until the end of treatments at week 10 (Figure 14). Halfway through the last week of treatment, the OGTT was performed, administering a dose of 1.5 g/Kg of glucose orally and subsequently monitoring capillary blood glucose at 0, 15, 30, 60, 90, and 120 min [62]. In addition, a 24-element blood chemistry was measured in a Celercare V automated dry chemistry analyzer (Tianjin MNCHIP Technologies Co., Ltd., Tianjin, China) at the beginning and end of the model. For this purpose, the blood samples were obtained from the tail of the rat.
as §1

[3] = system: STZ-HFD-induced T2D Wistar rats; test: Subchronic evaluation in STZ-HFD-induced T2D model; format: in vivo, rat; set-up: HbA1c: unit not given here
Experimental: In vivo experiments were conducted in an acute and a subchronic model, where Wistar rats (180–220 g) were used. The study covered a total period of 10 weeks and was carried out under the Mexican Standard, and the “Guide for the Care and Use of Laboratory Animals” of the National Research Council and Health Institutes was followed.
At first, animals were housed in polypropylene cages under conditions of controlled temperature (20–25 °C), relative humidity (36–60%), and light/dark cycles, with water ad libitum. Before starting the experiment, they were given a one-week acclimatization period to adapt to their new habitat. Once finalized, animals were fed an HFD for 3 weeks to generate insulin resistance.
After this period, the animals fasted for 12 h and then were administered intraperitoneally with a single dose of 35 mg/Kg of STZ dissolved in a buffer of 0.1 M citrate, pH 4.5 (prepared on the same day of administration). Once administered, the hypercaloric diet was maintained, and 10% sucrose solution was placed on demand for 2 days.
One week after administration, postprandial blood glucose levels were measured by venipuncture using a glucometer. Those animals that maintained a glucose level between 200 and 400 mg/dL were included in the study.
as §2, §1

[4] = system: STZ-HFD-induced T2D Wistar rats; test: Ex vivo serum total antioxidant capacity (Trolox equivalent); format: in vivo, rat
Experimental: as §1

TNF-α = test: Ex vivo serum TNF-α quantification; format: in vivo, rat
Experimental: as §1

[5] = Table S11, After 5 weeks of treatment
[6] = serum, end of treatment, mean ± SEM, n = 4
[7] = after the induction of T2D, before treatment

Which chemical stability [1] does the source give for `CS/C(=N/c1nc2ccccc2s1)N[C@@H](Cc1ccccc1)C(=O)O` [5d, (E)-((benzo[d]thiazol-2-ylimino)(methylthio)methyl)-L-phenylalanine] here?
Its chemical stability is “decomposes easily under ambient conditions; also recorded: decomposes, even at low temperatures”.

For `CCc1ccc(CCOc2ccc(CC3SC(=O)NC3=O)cc2)nc1` (centres unmarked) [PGZ, pioglitazone, reference compound], which “effect on IL-6 and TNF-α levels” value (IL-6; IL-6 and TNF-α together) is on record?
Its value is “significantly reduced IL-6 and TNF-α levels”.

And the IL-6 (IL-6; [5])?
The IL-6 was 234.25 ± 52.05 pg/mL.

What about the IL-6 (IL-6; [6]) of the same compound?
Its IL-6 is 234.25 ± 52.05 pg/mL.

And the A/G ([2]; Final)?
The A/G was 1.43 ± 0.05.

And the AMY ([2]; Final)?
The AMY was 405.75 ± 25.93.

What about the AST/ALT ([2]; Final) of the same compound?
The AST/ALT was 4.61 ± 0.51.

And the BUN/CRE ([2]; Final)?
Its BUN/CRE is 28.00 ± 3.24.

And the GGT ([2]; Final)?
Its GGT is 1.25 ± 0.19.

And the GLU ([2]; Final)?
The GLU was 275.25 ± 84.75.

And the T-CHOL ([2]; Final)?
The T-CHOL was 98.00 ± 5.57.

And the TBA ([2]; Final)?
Its TBA is 72.60 ± 16.24.

And the TG ([2]; Final)?
Its TG is 151.00 ± 10.42.

What about the ALP ([2]; Final) of the same compound?
The ALP was 274.00 ± 58.19.

And the ALT ([2]; Final)?
Its ALT is 75.75 ± 6.73.

And the AST ([2]; Final)?
The AST was 343.50 ± 39.59.

And the CK ([2]; Final)?
The CK was > 3000.

And the ALB ([2]; Final)?
Its ALB is 3.78 ± 0.12.

What about the GLO ([2]; Final) of the same compound?
Its GLO is 2.65 ± 0.12.

What about the BUN ([2]; Final) of the same compound?
Its BUN is 14.81 ± 1.23.

And the CRE ([2]; Final)?
The CRE was 0.54 ± 0.04.

What about the Ca ([2]; Final) of the same compound?
The Ca was 9.18 ± 0.08.

What about the Mg ([2]; Final) of the same compound?
The Mg was 2.40 ± 0.05.

And the P ([2]; Final)?
Its P is 8.30 ± 0.47.

And the TBIL ([2]; Final)?
Its TBIL is 0.16 ± 0.02.

And the UREA ([2]; Final)?
Its UREA is 31.58 ± 2.78.

And the tCO2 ([2]; Final)?
The tCO2 was 18.00 ± 0.41.

What about the TP ([2]; Final) of the same compound?
Its TP is 6.43 ± 0.22.

What about the A/G ([2]; Initial) of the same compound?
The A/G was 1.45 ± 0.03.

And the AMY ([2]; Initial)?
Its AMY is 369.75 ± 26.22.

What about the AST/ALT ([2]; Initial) of the same compound?
Its AST/ALT is 1.99 ± 0.38.

And the BUN/CRE ([2]; Initial)?
Its BUN/CRE is 25.75 ± 2.59.

What about the GGT ([2]; Initial) of the same compound?
Its GGT is 0.80 ± 0.25.

What about the GLU ([2]; Initial) of the same compound?
Its GLU is 203.25 ± 19.84.

And the T-CHOL ([2]; Initial)?
Its T-CHOL is 81.00 ± 1.96.

And the TBA ([2]; Initial)?
Its TBA is 76.43 ± 13.25.

What about the TG ([2]; Initial) of the same compound?
The TG was 108.13 ± 6.46.

And the ALP ([2]; Initial)?
Its ALP is 271.25 ± 44.69.

And the ALT ([2]; Initial)?
The ALT was 63.5 ± 6.5.

What about the AST ([2]; Initial) of the same compound?
Its AST is 119.25 ± 7.96.

What about the CK ([2]; Initial) of the same compound?
Its CK is 509 ± 118.04.

What about the ALB ([2]; Initial) of the same compound?
Its ALB is 3.85 ± 0.06.

What about the GLO ([2]; Initial) of the same compound?
The GLO was 2.65 ± 0.10.

And the BUN ([2]; Initial)?
Its BUN is 14.22 ± 1.51.

What about the CRE ([2]; Initial) of the same compound?
The CRE was 0.56 ± 0.03.

What about the Ca ([2]; Initial) of the same compound?
The Ca was 9.30 ± 0.20.

And the Mg ([2]; Initial)?
The Mg was 2.09 ± 0.03.

What about the P ([2]; Initial) of the same compound?
The P was 7.55 ± 0.87.

And the TBIL ([2]; Initial)?
Its TBIL is 0.2 ± 0.02.

And the UREA ([2]; Initial)?
Its UREA is 30.40 ± 3.28.

What about the tCO2 ([2]; Initial) of the same compound?
Its tCO2 is 13.75 ± 0.85.

And the TP ([2]; Initial)?
Its TP is 6.5 ± 0.15.

And the HOMA-IR ([3]; After 5 weeks of treatment)?
The HOMA-IR was 2.32 ± 0.407.

And the R-QUICKI ([3]; After 5 weeks of treatment)?
The R-QUICKI was 0.339 ± 0.008.

And the HbA1c ([3]; After 5 weeks of treatment, mean ± SEM, n = 4)?
Its HbA1c is 9.633 ± 1.601.

What about the HOMA-IR ([3]; Final (end of 5 weeks treatment), PGZ 30 mg/Kg, 8d 32 mg/Kg, mean ± SEM, n = 4) of the same compound?
The HOMA-IR was 2.32 ± 0.41.

What about the HOMA-IR ([3]; Initial (beginning of treatment), PGZ 30 mg/Kg, 8d 32 mg/Kg, mean ± SEM, n = 4) of the same compound?
The HOMA-IR was 2.59 ± 0.34.

What about the HOMA-IR [3, 7] of the same compound?
The HOMA-IR was 2.59 ± 0.337.

And the R-QUICKI [3, 7]?
The R-QUICKI was 0.333 ± 0.007.

What about the HbA1c ([3]; after the induction of T2D, before treatment, mean ± SEM, n = 4) of the same compound?
The HbA1c was 8.433 ± 0.088.

And the “adipogenic effect at necropsy” value ([3]; after treatment)?
The value was “clear adipogenic effect”.

And the “polydipsia (water consumption)” value ([3]; daily oral treatment)?
Its value is “decreasing the polydipsia after the first week of treatment”.

And the “redistribution of adipose tissue from visceral to subcutaneous fat” value ([3]; necropsy)?
The value was “marked”.

And the “effect on total antioxidant capacity (TAC)” value [4]?
Its value is “partial recovery of TAC”.

What about the “TAC Equivalent to Trolox” value [4, 5] of the same compound?
Its value is 97.75 ± 1.29 µM.

And the “TAC Equivalent to Trolox” value [4, 6]?
Its value is 97.75 ± 1.29 µM.

What about the TNF-α (TNF-α; [5]) of the same compound?
The TNF-α was 3000.53 ± 519.24 pg/mL.

What about the TNF-α (TNF-α; [6]) of the same compound?
The TNF-α was 3000.53 ± 519.24 pg/mL.
